Reference: US11066438B2, “Squalamine solid forms and methods of making the same” (Enterin, Inc., priority 2017, dated 2021)
“Also recorded” adds a separate entry of the source. Where two headings read alike, the source gives them in different places. Each block holds one compound with its values, some of them ahead of it.

Legend:
[1] = cited from earlier work
[2] = cited from earlier work; remark: listed apart in the source
[3] = Critical water activity for relative form stability: ethanol slurries at 25° C., XRPD; assay type: physicochemical; settings: for Final Form by XRPD: ethanol slurry 25° C.; for Water activity levels in ethanol at which the form is the stable form: EtOH slurries, 25° C.
Description: For robust isolation of desired squalamine phosphate crystal form, critical water activity in EtOH has been investigated in terms of the relative stability of ENT-01 Forms 1 and 2. The procedure is detailed below.
Nine samples of each Form 1 and Form 2 separately (˜25 mg each) were prepared in scintillation vials. To each vial ½ mL of ethanol with water activity levels from 0.1 to 0.9 were added and the vials were let to condition in a shaker at 25° C. for 2-3 days. Similarly, six mixed samples of Form 1 and 2 were prepared and slurry conditioned at water activity levels of 0.1 to 0.6 in ethanol at 25° C. The wet cakes of each slurry were analyzed by XRPD.
The slurries post conditioning were analyzed by XRPD. […] The XRPD pattern matches that of Form 2.

[4] = test system: HIV; settings: cited from earlier work
[5] = Form stability: water-acetone and water-ethanol wash, then 40° C. drying, XRPD; assay type: physicochemical; settings: overnight
Description: Two small portions of Form 2 (˜100 mg each) were prepared in sample vials. The first one was slurried in water briefly followed by filtration and acetone wash. The second one was slurried in water briefly, filtered and washed with ethanol. Both samples were then oven dried at 40° C. overnight and analyzed by XRPD (FIG. 11).

[6] = Form stability: low (27% RH) and high (70% RH) humidity conditioning, XRPD; assay type: physicochemical; settings: 21° C.
Description: One sample each of Form 1 and Form 2 on XRPD plates (˜10 mg each) were exposed to 21° C. 27% RH and 21° C. 70% RH for one and two days, respectively. The four samples were analyzed by XRPD (FIG. 12 and FIG. 13).

[7] = Form stability: dry ethanol slurry at 30° C., XRPD; assay type: physicochemical; settings: Slurry in dry ethanol at 30° C., overnight
Description: A small portion of Form 1 (˜50 mg) and a small portion of Form 2 (˜50 mg) were prepared in scintillation vials and equal volumes of sieve dried ethanol was added, the slurries were conditioned overnight in a shaker at 30° C. The wet slurries were analyzed by XRPD (FIG. 14).

[8] = dose levels 6 to 700 mg/m(2)/day
[9] = patients, 500 mg/m(2)/day, 5-day continuous i.v. infusion

Compound: CC(C)[C@@H](CC[C@@H](C)[C@H]1CC[C@H]2[C@@H]3[C@H](O)C[C@H]4C[C@@H](NCCCNCCCCN)CC[C@]4(C)[C@H]3CC[C@]12C)OS(=O)(=O)O [squalamine, 3 beta-N-1-(N-[3-(4-aminobutyl)]-1,3-diaminopropane)-7 alpha,24 zeta-dihydroxy-5 alpha-cholestane 24-sulfate]
dose-limiting toxicity ([1]; 500 mg/m(2)/day): one of seven patients experienced dose-limiting grade 4 hyperbilirubinemia and grade 3 neurosensory changes
tolerability ([1]; 500 mg/m(2)/day): well tolerated
dose-limiting toxicity ([1]; 700 mg/m(2)/day): two of three patients developed grade 4 hyperbilirubinemia
pharmacokinetics versus dose [1, 8]: dose-proportional
principal dose-limiting toxicity [1, 8]: Hepatotoxicity
clearance, mean (percentage coefficient of variation) [1, 9]: 2.67 liters/h/m(2)
half-life, mean (percentage coefficient of variation) [1, 9]: 9.46 h
steady-state concentrations, mean (percentage coefficient of variation) [1, 9]: 20.08 micro g/ml
volume of distribution, mean (percentage coefficient of variation) [1, 9]: 36.84 liters/m(2)
dose-limiting toxicity (grade 3/4 arthralgia, myalgia, neutropenia) ([2]; 400 mg/m(2)/day with paclitaxel and carboplatin): two of three patients
dose selected as the Phase II dose on the basis of safety and toxicity ([2]; combination regimen with paclitaxel and carboplatin): 300 mg/m(2)/day
tolerability of the combination ([2]; continuously daily for 5 days, with paclitaxel and carboplatin on day 1): well tolerated

Final Form by XRPD ([3]; Aw 0.000, water volume fraction 0.000, three days): Form 1
Final Form by XRPD ([3]; Aw 0.099, water volume fraction 0.013, three days): Form 1
Final Form by XRPD ([3]; Aw 0.205, water volume fraction 0.030, three days): Form 1
Final Form by XRPD ([3]; Aw 0.298, water volume fraction 0.048, three days): Form 1
Final Form by XRPD ([3]; Aw 0.398, water volume fraction 0.073, three days): Form 1 + Form 2
Final Form by XRPD ([3]; Aw 0.502, water volume fraction 0.104, three days): Form 1 + Form 2
Final Form by XRPD ([3]; Aw 0.700, water volume fraction 0.198, three days): Form 2
Final Form by XRPD ([3]; Aw 0.802, water volume fraction 0.296, three days): Form 2
Final Form by XRPD ([3]; Aw 0.900, water volume fraction 0.550, three days): Form 2
Compound: squalamine phosphate [Form 1 + Form 2]

Compound: C[C@H](Sc1nc(N)cc(Cl)n1)c1cc2ccoc2cn1 [PNU-142721]
greater activity than its predecessor delavirdine [4]: 20- to 50 fold

Compound: CC[C@H]1C(=O)Nc2ccc(F)cc2N1C(=O)OC(C)C [GW420867X]
greater activity than HBY097 [4]: 25 fold

Compound: Nc1nc(=O)n([C@@H]2CS[C@H](CO)O2)cc1F [COVIRACIL, emtricitabine]
greater activity in vitro than lamivudine (3TC) ([4]; in vitro): 3-to 10 fold

Final Form by XRPD ([3]; mixed forms, Aw 0.099, water volume fraction 0.013, seven days): Form 1
Final Form by XRPD ([3]; mixed forms, Aw 0.205, water volume fraction 0.030, seven days): Form 1
Final Form by XRPD ([3]; mixed forms, Aw 0.298, water volume fraction 0.048, seven days): Form 1
Final Form by XRPD ([3]; mixed forms, Aw 0.398, water volume fraction 0.073, seven days): Form 1
Final Form by XRPD ([3]; mixed forms, Aw 0.502, water volume fraction 0.104, seven days): Form 1
Final Form by XRPD ([3]; mixed forms, Aw 0.605 (0.6), water volume fraction 0.145, seven days): Form 2
Final Form by XRPD ([3]; mixed forms, Aw 0.605 (0.6), water volume fraction 0.145, seven days, listed as Form 1 and 2): converted to Form 2
Form after slurry conditioning, by XRPD ([3]; mixed slurries in Ethanol at water activity levels of 0.1 to 0.5 Aw at 25° C., seven days): converted to Form 1
Compound: squalamine phosphate [Form 1 + 2]

Final Form by XRPD [7]: converted to Form 1
Water activity levels in ethanol at which the form is the stable form [3]: ≥ 0.6 Aw
Form after slurry conditioning, by XRPD ([3]; slurries in Ethanol at water activity levels of 0.1 to 0.3 at 25° C., three days): converted to Form 1
Form after slurry conditioning, by XRPD ([3]; slurries in Ethanol at water activity levels of 0.4 to 0.9 at 25° C., three days): stayed the same Form 2
Compound: squalamine phosphate [Form 2]
Final Form by XRPD ([5]; Water-acetone wash + 40° C. dry): generates Form 1; also recorded: converted to Form 1
Final Form by XRPD ([5]; Water-ethanol wash + 40° C. dry): generates Form 1; also recorded: converted to Form 1
Final Form by XRPD ([6]; 27% RH, overnight (one day)): Form 1 was also obtained; also recorded: converted to Form 1
Final Form by XRPD ([6]; 70% RH, two nights): remained the same as their respective starting forms; also recorded: Form 2

Final Form by XRPD [7]: Form 1
Water activity levels in ethanol at which the form is the stable form [3]: ≤ 0.5 Aw
Form after slurry conditioning, by XRPD ([3]; slurries in Ethanol at water activity levels of 0.1 to 0.6 at 25° C., three days): stayed the same Form
Form after slurry conditioning, by XRPD ([3]; slurries in Ethanol at water activity levels of 0.7 to 0.9 at 25° C., three days): converted to Form 2
Compound: squalamine phosphate [Form 1]
Final Form by XRPD ([6]; 27% RH, overnight (one day)): remained the same form; also recorded: Form 1
Final Form by XRPD ([6]; 70% RH, two nights): remained the same as their respective starting forms; also recorded: Form 1
